Source: patent US11690839B2, “Treatment of idiopathic pulmonary fibrosis” (TAKEDA GMBH, priority 2017, dated 2023)
Read-outs that look alike come from different tables or passages of the source.

How the values were obtained:
[1] = test system: IPF mice model (DTR+ mice given diphtheria toxin); type: in vivo
[2] = test system: WI-38 human lung fibroblasts; assay: TGF-β induced mRNA expression of pro-fibrotic markers in WI-38 human lung fibroblast cell line; type: cell-based; conditions: WI-38 cells, various concentrations of Compound A 1 hour before TGF-β (3 ng/mL) and forskolin (1 μM), 24 hours incubation, normalized to GAPDH; FIG. 2
Protocol: 2) In Vitro Effects of PDE4 Inhibitor Compound A in […]
For gene expression assay, WI-38 human lung fibroblasts were suspended in Eagle's minimum essential medium (E-MEM, Invitrogen) containing 10% heat-inactivated fetal bovine serum (FBS) and seeded on 24 well plates as 0.5×10^5 cells/500 μL/well. Twenty-four hours after the seeding, medium was re-placed by E-MEM containing 0.5% FBS. Twenty-four hours after medium change, cells were treated with various concentration of Compound A. After 1 hour, cells were treated with TGF-β (3 ng/mL) and forskolin (1 μM). After the 24-hours incubation, total RNA was ex-tracted from cell lysate using RNeasy 96 Kit (QIAGEN 74182). cDNA was amplified using High-Capacity cDNA Reverse Transcription Kit (ABI 4368813), and target gene mRNA was measured using TaqMan PCR with predesigned primers for type 1 collagen alpha 1 chain (Hs00164004_m1, Applied Biosystems), fibronectin (Hs00365052_m1, Applied Biosystems), connective tissue growth factor (Hs01026927_g1, Applied Biosystems), plasminogen activator inhibitor-1 (Hs00167155_m1, Applied Biosystems) and GAPDH (Hs02758991_g1, Applied Biosystems) as the endogenous reference. The target gene expression levels were normalized by mRNA expression of GAPDH and the data represent the relative mRNA levels to TGF-β/forskolin-treated group.

| SMILES | body weight reduction by induction of epithelial cell injury ([1]; DT day 1-14, Compound A 0.3 or 3.0 mg/kg oral once daily day 11-21, FIG. 1B) | suppression of lung hydroxyproline content (severity of lung fibrosis) ([1]; DT day 1-14, Compound A oral gavage once daily day 11-21, already starting at 0.3 mg/kg (doses 0.3 and 3.0 mg/kg), assessed day 21, FIG. 1A) | mRNA expression of fibrotic marker genes (type 1 collagen alpha 1, fibronectin, connective tissue growth factor, plasminogen activator inhibitor-1) induced by TGF-β [2] | body weight reduction by induction of epithelial cell injury ([1]; DT day 1-14, imatinib 50 mg/kg intraperitoneal once daily day 11-21, FIG. 1B) | suppression of lung hydroxyproline content (severity of lung fibrosis) ([1]; DT day 1-14, imatinib 50 mg/kg intraperitoneal once daily day 11-21, assessed day 21, FIG. 1A) |
| --- | --- | --- | --- | --- | --- |
| CCOc1cc2c(cc1OC)C(c1ccc(=O)n(C)c1)=N[C@@H]1CC[C@@H](O)C[C@H]21 [Compound A, 5-((2R,4aR,10bR)-9-Ethoxy-2-hydroxy-8-methoxy-1,2,3,4,4a,10b-hexahydro-phenanthridin-6-yl)-1-methyl-1H-pyridin-2-one] | blunting effect was shown | robust and significant effect on suppression of hydroxyproline content | significantly suppressed expression of fibrotic marker genes induced by TGF-β | – | – |
| Cc1ccc(NC(=O)c2ccc(CN3CCN(C)CC3)cc2)cc1Nc1nccc(-c2cccnc2)n1 [Imatinib, reference compound] | – | – | – | not blunted | only a moderate efficacy |
